Reference: patent US20260035365A1, “1H-PYRROLO[3,2-B]PYRIDINE DERIVATIVES AS IRREVERSIBLE INHIBITORS OF MUTANT EGFR FOR THE TREATMENT OF CANCER” (Bayer Aktiengesellschaft, priority 2022, published 2026)

How the values were obtained:
[1] = biological target: mutEGFR (D770_N771insSVD) (Homo sapiens, UniProt P00533, INS767SVD); experiment: Exon20-mutant-EGFR (D770_N771insSVD) TR-FRET kinase assay; assay type: biochemical; conditions: 2 mM ATP, 15 min preincubation
How it was run: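 GST-fused human EGFR fragment R669-A1210 carrying the SVD insertion, Sf9-expressed, typically 15 pg/μl, was preincubated with compound for 15 min at 22° C in pH 7.0 Hepes/MgCl2 buffer. Phosphorylation was read by HTRF (665/620 nm ratio), normalised to no-inhibitor and no-enzyme controls.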

[2] = biological target: mutEGFR (D770_N771insNPG, T790); experiment: mutEGFR (D770_N771insNPG, T790) kinase assay; assay type: biochemical, human
BA/F3 (insSVD) cells = experiment: Ba/F3 cell survival assay (Cell Titer-Glo), EGFR-insSVD; assay type: cell-based; conditions: Mus musculus, BaF3, 48 h, without IL-3, with EGF
How it was run: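 Ba/F3 cells stably expressing EGFR-insSVD or insSVD T790M via retrovirus (puromycin-selected), switched from IL-3 to 10 ng/mL EGF for 2 days, then plated at 4000 cells/well. Compound added by 100 nL pin transfer; 48 h at 37° C. Viability by CellTiter-Glo luminescence.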

mutEGFR (D770_N771insNPG, T790), sequence (P00533 with tags, fused parts or gaps INS770NPG limits assumed): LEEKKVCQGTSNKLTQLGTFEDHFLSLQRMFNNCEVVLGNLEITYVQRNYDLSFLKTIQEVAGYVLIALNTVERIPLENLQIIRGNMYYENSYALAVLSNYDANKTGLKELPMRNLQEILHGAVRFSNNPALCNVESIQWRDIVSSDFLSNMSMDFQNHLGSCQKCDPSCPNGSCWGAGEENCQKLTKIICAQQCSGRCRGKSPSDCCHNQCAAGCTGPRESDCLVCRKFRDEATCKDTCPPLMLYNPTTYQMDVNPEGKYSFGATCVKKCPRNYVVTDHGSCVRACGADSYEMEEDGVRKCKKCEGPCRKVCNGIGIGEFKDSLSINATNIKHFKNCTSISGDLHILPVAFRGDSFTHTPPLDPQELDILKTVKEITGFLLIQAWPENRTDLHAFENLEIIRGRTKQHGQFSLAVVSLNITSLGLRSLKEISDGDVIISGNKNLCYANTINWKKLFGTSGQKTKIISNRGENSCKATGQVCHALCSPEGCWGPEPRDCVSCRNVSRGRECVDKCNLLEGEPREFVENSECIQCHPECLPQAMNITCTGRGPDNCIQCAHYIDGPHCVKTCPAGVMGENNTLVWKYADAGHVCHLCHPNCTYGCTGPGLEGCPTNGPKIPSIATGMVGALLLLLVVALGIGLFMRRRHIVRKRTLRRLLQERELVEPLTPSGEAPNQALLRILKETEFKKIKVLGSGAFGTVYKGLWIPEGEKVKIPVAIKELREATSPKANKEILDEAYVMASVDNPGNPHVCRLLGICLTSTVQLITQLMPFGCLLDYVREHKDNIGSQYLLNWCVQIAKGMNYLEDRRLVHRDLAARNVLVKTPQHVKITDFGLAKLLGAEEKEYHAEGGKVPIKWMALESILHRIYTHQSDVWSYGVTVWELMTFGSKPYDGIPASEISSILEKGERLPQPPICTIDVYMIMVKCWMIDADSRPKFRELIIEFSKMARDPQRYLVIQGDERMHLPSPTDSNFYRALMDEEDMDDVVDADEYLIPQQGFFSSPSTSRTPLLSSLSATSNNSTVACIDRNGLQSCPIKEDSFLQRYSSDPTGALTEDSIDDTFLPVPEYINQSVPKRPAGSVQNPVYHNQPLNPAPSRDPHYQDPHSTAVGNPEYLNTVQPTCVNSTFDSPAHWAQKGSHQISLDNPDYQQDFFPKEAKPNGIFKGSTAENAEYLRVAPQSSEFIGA
mutEGFR (D770_N771insSVD), sequence (P00533 with tags, fused parts or gaps INS767SVD limits assumed): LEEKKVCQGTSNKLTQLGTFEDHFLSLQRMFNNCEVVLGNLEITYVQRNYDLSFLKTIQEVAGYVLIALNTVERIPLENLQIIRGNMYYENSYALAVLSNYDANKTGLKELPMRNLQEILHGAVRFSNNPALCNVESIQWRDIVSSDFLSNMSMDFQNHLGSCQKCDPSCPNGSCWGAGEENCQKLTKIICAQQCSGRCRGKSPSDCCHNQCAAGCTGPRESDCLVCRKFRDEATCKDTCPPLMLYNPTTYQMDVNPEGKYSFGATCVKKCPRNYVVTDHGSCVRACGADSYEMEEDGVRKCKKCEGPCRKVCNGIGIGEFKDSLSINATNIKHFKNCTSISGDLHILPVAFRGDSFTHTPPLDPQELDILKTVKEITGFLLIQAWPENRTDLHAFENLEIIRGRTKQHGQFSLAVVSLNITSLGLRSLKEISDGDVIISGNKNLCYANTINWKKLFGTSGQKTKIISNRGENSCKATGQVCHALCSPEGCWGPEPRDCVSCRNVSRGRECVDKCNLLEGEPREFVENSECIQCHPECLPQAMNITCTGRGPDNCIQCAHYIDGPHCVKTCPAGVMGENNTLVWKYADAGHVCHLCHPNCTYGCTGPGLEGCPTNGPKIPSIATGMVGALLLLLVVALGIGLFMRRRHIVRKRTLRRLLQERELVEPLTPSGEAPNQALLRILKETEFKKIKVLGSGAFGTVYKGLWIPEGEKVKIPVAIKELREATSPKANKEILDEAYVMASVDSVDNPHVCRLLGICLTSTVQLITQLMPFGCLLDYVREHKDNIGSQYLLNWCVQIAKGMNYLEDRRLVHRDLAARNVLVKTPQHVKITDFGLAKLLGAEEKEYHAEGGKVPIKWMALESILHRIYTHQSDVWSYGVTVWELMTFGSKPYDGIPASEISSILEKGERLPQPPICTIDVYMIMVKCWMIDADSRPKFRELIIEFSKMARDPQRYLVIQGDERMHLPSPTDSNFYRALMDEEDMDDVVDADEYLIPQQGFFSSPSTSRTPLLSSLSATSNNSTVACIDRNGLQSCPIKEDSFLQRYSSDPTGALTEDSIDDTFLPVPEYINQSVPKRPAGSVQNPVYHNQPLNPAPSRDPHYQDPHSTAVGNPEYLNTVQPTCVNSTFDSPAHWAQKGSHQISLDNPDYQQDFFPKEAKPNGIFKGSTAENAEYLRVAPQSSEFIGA

O=C(/C=C/CN1CCCC1)N1CCC[C@H]1COc1cnccc1-c1[nH]c2cccnc2c1-c1ccccc1 [Example 99, (2E)-1-[(2S)-2-({[4-(3-phenyl-1H-pyrrolo[3,2-b]pyridin-2-yl)pyridin-3-yl]oxy}methyl)pyrrolidin-1-yl]-4-(pyrrolidin-1-yl)but-2-en-1-one]
IC50 [1]: 2.32 nM | IC50 [2]: 10.8 nM | IC50 (BA/F3 (insSVD) cells): 115 nM

CN(C)CC#CC(=O)N1CCC[C@H]1COc1cnccc1-c1[nH]c2cccnc2c1-c1ccccc1 [Example 100, 4-(dimethylamino)-1-[(2S)-2-({[4-(3-phenyl-1H-pyrrolo[3,2-b]pyridin-2-yl)pyridin-3-yl]oxy}methyl)pyrrolidin-1-yl]but-2-yn-1-one]
IC50 [1]: 1.11 nM | IC50 [2]: 4.67 nM | IC50 (BA/F3 (insSVD) cells): 57.5 nM

C=CS(=O)(=O)N1CCC[C@H]1COc1cnccc1-c1[nH]c2cccnc2c1-c1cc(C(F)(F)F)ccc1F [Example 101, 2-(3-{[(2S)-1-(ethenesulfonyl)pyrrolidin-2-yl]methoxy}pyridin-4-yl)-3-[2-fluoro-5-(trifluoromethyl)phenyl]-1H-pyrrolo[3,2-b]pyridine]
IC50 [1]: 52.2 nM | IC50 [2]: 89.8 nM | IC50 (BA/F3 (insSVD) cells): 957 nM

C#Cc1cccc(-c2c(-c3ccncc3OC[C@@H]3CCCN3C(=O)C=C)[nH]c3cccnc23)c1 [Example 102, 1-{(2S)-2-[({4-[3-(3-ethynylphenyl)-1H-pyrrolo[3,2-b]pyridin-2-yl]pyridin-3-yl}oxy)methyl]pyrrolidin-1-yl}prop-2-en-1-one]
IC50 [1]: 0.417 nM | IC50 [2]: 1.29 nM | IC50 (BA/F3 (insSVD) cells): 135 nM

C=CC(=O)N1CCC[C@H]1COc1cnccc1-c1[nH]c2cccnc2c1-c1ccc(F)c(OC(F)F)c1 [Example 103, 1-[(2S)-2-{[(4-{3-[3-(difluoromethoxy)-4-fluorophenyl]-1H-pyrrolo[3,2-b]pyridin-2-yl}pyridin-3-yl)oxy]methyl}pyrrolidin-1-yl]prop-2-en-1-one]
IC50 [1]: 3.56 nM | IC50 [2]: 16.9 nM | IC50 (BA/F3 (insSVD) cells): 650 nM

CN(C)C/C=C/C(=O)N1CCC[C@H]1COc1cnccc1-c1[nH]c2cccnc2c1-c1ccc(F)c(OC(F)F)c1 [Example 104, (2E)-1-[(2S)-2-{[(4-{3-[3-(difluoromethoxy)-4-fluorophenyl]-1H-pyrrolo[3,2-b]pyridin-2-yl}pyridin-3-yl)oxy]methyl}pyrrolidin-1-yl]-4-(dimethylamino)but-2-en-1-one]
IC50 [1]: 36.9 nM | IC50 [2]: 149 nM | IC50 (BA/F3 (insSVD) cells): 1380 nM

C=CS(=O)(=O)N1CCC[C@H]1COc1cnccc1-c1[nH]c2cccnc2c1-c1ccc(F)c(OC(F)F)c1 [Example 105, 3-[3-(difluoromethoxy)-4-fluorophenyl]-2-(3-{[(2S)-1-(ethenesulfonyl)pyrrolidin-2-yl]methoxy}pyridin-4-yl)-1H-pyrrolo[3,2-b]pyridine]
IC50 [1]: 0.207 nM | IC50 [2]: 0.537 nM | IC50 (BA/F3 (insSVD) cells): 31.1 nM

C=CC(=O)N1CCC[C@H]1COc1cnccc1-c1[nH]c2cccnc2c1-c1ccc(F)c(OC(F)(F)F)c1 [Example 106, 1-[(2S)-2-{[(4-{3-[4-fluoro-3-(trifluoromethoxy)phenyl]-1H-pyrrolo[3,2-b]pyridin-2-yl}pyridin-3-yl)oxy]methyl}pyrrolidin-1-yl]prop-2-en-1-one]
IC50 [1]: 13.3 nM | IC50 [2]: 77.4 nM | IC50 (BA/F3 (insSVD) cells): 1630 nM

CN(C)C/C=C/C(=O)N1CCC[C@H]1COc1cnccc1-c1[nH]c2cccnc2c1-c1ccc(F)c(OC(F)(F)F)c1 [Example 107, (2E)-4-(dimethylamino)-1-[(2S)-2-{[(4-{3-[4-fluoro-3-(trifluoromethoxy)phenyl]-1H-pyrrolo[3,2-b]pyridin-2-yl}pyridin-3-yl)oxy]methyl}pyrrolidin-1-yl]but-2-en-1-one]
IC50 [1]: 94.5 nM | IC50 [2]: 342 nM | IC50 (BA/F3 (insSVD) cells): 1510 nM

C=CS(=O)(=O)N1CCC[C@H]1COc1cnccc1-c1[nH]c2cccnc2c1-c1ccc(F)c(OC(F)(F)F)c1 [Example 108, 2-(3-{[(2S)-1-(ethenesulfonyl)pyrrolidin-2-yl]methoxy}pyridin-4-yl)-3-[4-fluoro-3-(trifluoromethoxy)phenyl]-1H-pyrrolo[3,2-b]pyridine]
IC50 [1]: 0.557 nM | IC50 [2]: 2.41 nM | IC50 (BA/F3 (insSVD) cells): 70.4 nM

C=CC(=O)N1CCC[C@H]1COc1cncc(F)c1-c1[nH]c2cccnc2c1-c1ccccc1 [Example 109, 1-[(2S)-2-({[5-fluoro-4-(3-phenyl-1H-pyrrolo[3,2-b]pyridin-2-yl)pyridin-3-yl]oxy}methyl)pyrrolidin-1-yl]prop-2-en-1-one]
IC50 [1]: 0.573 nM | IC50 [2]: 83.7 nM | IC50 (BA/F3 (insSVD) cells): 46.6 nM

C=CC(=O)N1C[C@@H](C)C[C@H]1COc1cnccc1-c1[nH]c2cccnc2c1-c1ccccc1 [Example 110, 1-[(2S,4S)-4-methyl-2-({[4-(3-phenyl-1H-pyrrolo[3,2-b]pyridin-2-yl)pyridin-3-yl]oxy}methyl)pyrrolidin-1-yl]prop-2-en-1-one]
IC50 [1]: 1.27 nM | IC50 [2]: 5.97 nM | IC50 (BA/F3 (insSVD) cells): 37.5 nM

C=CC(=O)N1CC(F)(F)C[C@H]1COc1cnccc1-c1[nH]c2cccnc2c1-c1ccccc1 [Example 112, 1-[(2S)-4,4-difluoro-2-({[4-(3-phenyl-1H-pyrrolo[3,2-b]pyridin-2-yl)pyridin-3-yl]oxy}methyl)pyrrolidin-1-yl]prop-2-en-1-one]
IC50 [1]: 0.215 nM | IC50 [2]: 0.979 nM | IC50 (BA/F3 (insSVD) cells): 17.5 nM

C=CC(=O)N1C=C(F)C[C@H]1COc1cnccc1-c1[nH]c2cccnc2c1-c1ccccc1 [Example 113, 1-[(2S)-4-fluoro-2-({[4-(3-phenyl-1H-pyrrolo[3,2-b]pyridin-2-yl)pyridin-3-yl]oxy}methyl)-2,3-dihydro-1H-pyrrol-1-yl]prop-2-en-1-one]
IC50 [1]: 0.114 nM | IC50 [2]: 0.724 nM | IC50 (BA/F3 (insSVD) cells): 9.99 nM

C=CC(=O)N1C[C@@H](F)C[C@H]1COc1cnccc1-c1[nH]c2cccnc2c1-c1ccccc1 [Example 114, 1-[(2S,4S)-4-fluoro-2-({[4-(3-phenyl-1H-pyrrolo[3,2-b]pyridin-2-yl)pyridin-3-yl]oxy}methyl)pyrrolidin-1-yl]prop-2-en-1-one]
IC50 [1]: 0.96 nM | IC50 [2]: 4.35 nM | IC50 (BA/F3 (insSVD) cells): 38.9 nM

C=CC(=O)N1CC=C[C@H]1COc1cnccc1-c1[nH]c2cccnc2c1-c1ccccc1 [Example 115, 1-[(2S)-2-({[4-(3-phenyl-1H-pyrrolo[3,2-b]pyridin-2-yl)pyridin-3-yl]oxy}methyl)-2,5-dihydro-1H-pyrrol-1-yl]prop-2-en-1-one]
IC50 [1]: 0.281 nM | IC50 [2]: 0.875 nM | IC50 (BA/F3 (insSVD) cells): 12.2 nM

C#CC(=O)N1CC[C@@H](Oc2cnccc2-c2[nH]c3cccnc3c2-c2cc(Cl)ccc2F)C1 [Example 128, 1-[(3R)-3-({4-[3-(5-chloro-2-fluorophenyl)-1H-pyrrolo[3,2-b]pyridin-2-yl]pyridin-3-yl}oxy)pyrrolidin-1-yl]prop-2-yn-1-one]
IC50 [1]: 63 nM | IC50 [2]: 208 nM | IC50 (BA/F3 (insSVD) cells): 765 nM

C=CC(=O)N1CCC[C@H]1COc1cncc(F)c1-c1[nH]c2cccnc2c1-c1cc(Cl)ccc1F [Example 129, 1-{(2S)-2-[({4-[3-(5-chloro-2-fluorophenyl)-1H-pyrrolo[3,2-b]pyridin-2-yl]-5-fluoropyridin-3-yl}oxy)methyl]pyrrolidin-1-yl}prop-2-en-1-one]
IC50 [1]: 1 nM | IC50 [2]: 92.6 nM | IC50 (BA/F3 (insSVD) cells): 110 nM

C=CC(=O)N1CCC[C@H]1COc1cnccc1-c1[nH]c2c(C)ccnc2c1-c1ccccc1 [Example 135, 1-[(2S)-2-({[4-(7-methyl-3-phenyl-1H-pyrrolo[3,2-b]pyridin-2-yl)pyridin-3-yl]oxy}methyl)pyrrolidin-1-yl]prop-2-en-1-one]
IC50 [1]: 0.589 nM | IC50 [2]: 1.83 nM | IC50 (BA/F3 (insSVD) cells): 16.1 nM

C=CS(=O)(=O)N1CCC[C@H]1COc1cnccc1-c1[nH]c2c(C)ccnc2c1-c1ccccc1 [Example 136, 2-(3-{[(2S)-1-(ethenesulfonyl)pyrrolidin-2-yl]methoxy}pyridin-4-yl)-7-methyl-3-phenyl-1H-pyrrolo[3,2-b]pyridine]
IC50 [1]: 0.214 nM | IC50 [2]: 0.706 nM | IC50 (BA/F3 (insSVD) cells): 8.43 nM

C=CC(=O)N1CCC[C@H]1COc1cnccc1-c1[nH]c2c(C)ccnc2c1-c1cc(Cl)ccc1F [Example 137, 1-{(2S)-2-[({4-[3-(5-chloro-2-fluorophenyl)-7-methyl-1H-pyrrolo[3,2-b]pyridin-2-yl]pyridin-3-yl}oxy)methyl]pyrrolidin-1-yl}prop-2-en-1-one]
IC50 [1]: 0.724 nM | IC50 [2]: 1.55 nM | IC50 (BA/F3 (insSVD) cells): 25.1 nM

C=CS(=O)(=O)N1CCC[C@H]1COc1cnccc1-c1[nH]c2c(C)ccnc2c1-c1cc(Cl)ccc1F [Example 138, 3-(5-chloro-2-fluorophenyl)-2-(3-{[(2S)-1-(ethenesulfonyl)pyrrolidin-2-yl]methoxy}pyridin-4-yl)-7-methyl-1H-pyrrolo[3,2-b]pyridine]
IC50 [1]: 0.582 nM | IC50 [2]: 1.36 nM | IC50 (BA/F3 (insSVD) cells): 27 nM

C=CS(=O)(=O)N1CC[C@@]1(C)COc1cnccc1-c1[nH]c2cccnc2c1-c1ccccc1 [Example 146, 2-(3-{[(2S)-1-(ethenesulfonyl)-2-methylazetidin-2-yl]methoxy}pyridin-4-yl)-3-phenyl-1H-pyrrolo[3,2-b]pyridine]
IC50 [1]: 32.7 nM | IC50 [2]: 265 nM | IC50 (BA/F3 (insSVD) cells): 1240 nM

C=CC(=O)N1CCC1(C)COc1cnccc1-c1[nH]c2cccnc2c1-c1cccc(C(F)(F)F)c1 (stereo not drawn) [Example 147, 1-[(2IRS)-2-methyl-2-{[(4-{3-[3-(trifluoromethyl)phenyl]-1H-pyrrolo[3,2-b]pyridin-2-yl}pyridin-3-yl)oxy]methyl}azetidin-1-yl]prop-2-en-1-one]
IC50 [1]: 699 nM | IC50 [2]: 3680 nM | IC50 (BA/F3 (insSVD) cells): 6530 nM
